#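 Cells were grown in 96-well plates and exposed to each compound for 48 hours at five concentrations; endpoints were interpolated linearly between bracketing concentrations, or set to the highest concentration if not reached. TGI: total growth inhibition.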
# Columns and labels:
# Experiment in all cases: inhibition of tumour cell growth, NCI panel, 48 h
# [1] = tested on: MOLT-4 leukemia
# [2] = tested on: RPMI-8226 leukemia
# [3] = tested on: U251 CNS
# [4] = tested on: SK-OV-3 ovarian
# [5] = tested on: LOX IMVI melanoma
# [6] = tested on: EKVX NSCLC
# [7] = tested on: NCI-H23 lung
# [8] = tested on: HT29 colon
# [9] = tested on: NCI-H522 lung
# [10] = tested on: HCC-2998 colon
# [11] = tested on: NCI/ADR-RES ovarian
# [12] = tested on: A498 renal
# [13] = tested on: MALME-3M melanoma
# [14] = tested on: NCI-H226 lung
# [15] = tested on: SF-295 CNS
# [16] = tested on: SK-MEL-2 melanoma
# [17] = tested on: SK-MEL-5 melanoma
# [18] = tested on: OVCAR-4 ovarian
# [19] = tested on: NCI-H460 lung
# [20] = tested on: M14 melanoma
# [21] = tested on: IGROV1 ovarian
# [22] = tested on: K-562 leukemia
# [23] = tested on: MDA-N
# [24] = tested on: PC-3 prostate
# [25] = tested on: OVCAR-3 ovarian
# [26] = tested on: KM12 colon
# [27] = tested on: HOP-62 NSCLC
# [28] = tested on: HCT-15 colon
# [29] = tested on: UO-31 renal
# [30] = tested on: MDA-MB-231 breast
# [31] = tested on: HL-60(TB) leukemia
# [32] = tested on: HS 578T breast
# [33] = tested on: CCRF-CEM leukemia
# [34] = tested on: SNB-75 CNS
# [35] = tested on: T-47D breast
# [36] = tested on: SW-620 colon
# [37] = tested on: UACC-62 melanoma
# [38] = tested on: 786-0 renal
# [39] = tested on: SNB-19 CNS
# [40] = tested on: HOP-92 NSCLC
# [41] = tested on: BT-549 breast
# [42] = tested on: UACC-257 melanoma
# [43] = tested on: HCT-116 colon
# [44] = tested on: SF-539 CNS
# [45] = tested on: CAKI-1 renal
# [46] = tested on: DU-145 prostate
# [47] = tested on: A549 NSCLC
# [48] = tested on: COLO 205 colon
# [49] = tested on: OVCAR-5 ovarian
# [50] = tested on: SN12C renal
# [51] = tested on: MCF7 breast
# [52] = tested on: ACHN renal
# [53] = tested on: SF-268 CNS
# [54] = tested on: SR leukemia
# [55] = tested on: SK-MEL-28 melanoma
# [56] = tested on: OVCAR-8 ovarian
# [57] = tested on: RXF 393 renal
# [58] = tested on: MDA-MB-435
# [59] = tested on: TK-10 renal
# [60] = tested on: DMS 114 small cell lung
# [61] = tested on: KM20L2 colon
# [62] = tested on: LXFL 529 NSCLC
# [63] = tested on: DMS 273 small cell lung
# [64] = tested on: XF 498 CNS
# [65] = tested on: M19-MEL melanoma
# [66] = tested on: DLD-1 colon
# [67] = tested on: HOP-18 NSCLC
# [68] = tested on: RXF-631 renal
# [69] = tested on: SNB-78 CNS
smiles,measurement,setting,value
CC(=O)Oc1ccc(/C=C/C(=O)OCCOC(=O)/C=C/c2ccc(OC(C)=O)c(OC(C)=O)c2)cc1OC(C)=O,TGI,[1],> 38.5 µM
same,TGI,[2],24.5 µM
same,TGI,[3],22.1 µM
same,TGI,[4],35 µM
same,TGI,[5],16.3 µM
same,TGI,[6],45 µM
same,TGI,[7],18.7 µM
same,TGI,[8],> 56.7 µM
same,TGI,[9],17 µM
same,TGI,[10],28.6 µM
same,TGI,[11],16.3 µM
same,TGI,[12],52.5 µM
same,TGI,[13],30.1 µM
same,TGI,[14],41.5 µM
same,TGI,[15],25.4 µM
same,TGI,[16],55.6 µM
same,TGI,[17],20.1 µM
same,TGI,[18],28.4 µM
same,TGI,[19],32 µM
same,TGI,[20],25.3 µM
same,TGI,[21],10.7 µM
same,TGI,[22],> 100 µM
same,TGI,[23],23.5 µM
same,TGI,[24],58.8 µM
same,TGI,[25],> 28.6 µM
same,TGI,[26],22.1 µM
same,TGI,[27],5.23 µM
same,TGI,[28],33.8 µM
same,TGI,[29],15.3 µM
same,TGI,[30],52.4 µM
same,TGI,[31],> 44.6 µM
same,TGI,[32],62.7 µM
same,TGI,[33],6.12 µM
same,TGI,[34],22.5 µM
same,TGI,[35],43 µM
same,TGI,[36],49 µM
same,TGI,[37],16.3 µM
same,TGI,[38],22.3 µM
same,TGI,[39],> 77.9 µM
same,TGI,[40],26.7 µM
same,TGI,[41],53 µM
same,TGI,[42],22.6 µM
same,TGI,[43],20.9 µM
same,TGI,[44],13.4 µM
same,TGI,[45],11.6 µM
same,TGI,[46],28.6 µM
same,TGI,[47],50.3 µM
same,TGI,[48],28.2 µM
same,TGI,[49],> 60.1 µM
same,TGI,[50],69 µM
same,TGI,[51],28.6 µM
same,TGI,[52],35.8 µM
same,TGI,[53],56.5 µM
same,TGI,[54],20.7 µM
same,TGI,[55],29.4 µM
same,TGI,[56],35 µM
same,TGI,[57],21.3 µM
same,TGI,[58],28 µM
same,TGI,[59],37.2 µM
Cc1ccc(N=NC(C2=NC(=O)CS2)c2nc3ccccc3[nH]2)cc1 (configuration not stated),TGI,[60],> 100 µM
same,TGI,[1],76.7 µM
same,TGI,[2],> 100 µM
same,TGI,[3],> 100 µM
same,TGI,[4],> 100 µM
same,TGI,[6],> 100 µM
same,TGI,[7],> 100 µM
same,TGI,[8],> 100 µM
same,TGI,[9],> 100 µM
same,TGI,[12],> 100 µM
same,TGI,[13],> 100 µM
same,TGI,[14],> 100 µM
same,TGI,[15],> 100 µM
same,TGI,[61],> 100 µM
same,TGI,[62],> 100 µM
same,TGI,[17],> 100 µM
same,TGI,[18],> 100 µM
same,TGI,[19],> 100 µM
same,TGI,[20],> 100 µM
same,TGI,[21],> 100 µM
same,TGI,[22],> 100 µM
same,TGI,[25],> 100 µM
same,TGI,[26],> 100 µM
same,TGI,[27],69.3 µM
same,TGI,[28],> 100 µM
same,TGI,[29],> 100 µM
same,TGI,[31],> 100 µM
same,TGI,[33],> 100 µM
same,TGI,[34],> 100 µM
same,TGI,[36],> 100 µM
same,TGI,[37],> 100 µM
same,TGI,[39],> 100 µM
same,TGI,[40],> 100 µM
same,TGI,[63],> 100 µM
same,TGI,[42],> 100 µM
same,TGI,[43],> 100 µM
same,TGI,[44],> 100 µM
same,TGI,[64],> 100 µM
same,TGI,[65],> 100 µM
same,TGI,[45],> 100 µM
same,TGI,[47],> 100 µM
same,TGI,[48],> 100 µM
same,TGI,[49],> 100 µM
same,TGI,[50],> 100 µM
same,TGI,[52],> 100 µM
same,TGI,[53],> 100 µM
same,TGI,[54],> 100 µM
same,TGI,[55],> 100 µM
same,TGI,[66],> 100 µM
same,TGI,[56],> 100 µM
same,TGI,[59],> 100 µM
CN1CCc2cc3c4cc2C1Cc1ccc(cc1)Oc1cc(ccc1O)CC1c2c(cc(O)c(c2O4)O3)CCN1C (configuration not stated),TGI,[60],4.58 µM
same,TGI,[67],18.5 µM
same,TGI,[1],10.2 µM
same,TGI,[2],4.02 µM
same,TGI,[68],7.92 µM
same,TGI,[3],3.16 µM
same,TGI,[4],9 µM
same,TGI,[5],3.23 µM
same,TGI,[6],25.8 µM
same,TGI,[7],13.5 µM
same,TGI,[8],9.42 µM
same,TGI,[9],11.1 µM
same,TGI,[10],4.11 µM
same,TGI,[13],3.56 µM
same,TGI,[14],4.97 µM
same,TGI,[15],3.11 µM
same,TGI,[16],3.18 µM
same,TGI,[69],21.3 µM
same,TGI,[61],10.3 µM
same,TGI,[62],6.26 µM
same,TGI,[17],16.7 µM
same,TGI,[18],4.37 µM
same,TGI,[19],4.01 µM
same,TGI,[20],3.26 µM
same,TGI,[21],14.3 µM
same,TGI,[22],4.54 µM
same,TGI,[25],11.5 µM
same,TGI,[26],4.43 µM
same,TGI,[27],11.2 µM
same,TGI,[28],4.27 µM
same,TGI,[29],13.6 µM
same,TGI,[31],41.6 µM
same,TGI,[33],14 µM
same,TGI,[34],65.6 µM
same,TGI,[36],7.46 µM
same,TGI,[37],3.76 µM
same,TGI,[38],10.9 µM
same,TGI,[39],7.38 µM
same,TGI,[40],8.13 µM
same,TGI,[63],3.84 µM
same,TGI,[42],4.04 µM
same,TGI,[43],3.19 µM
same,TGI,[44],3.21 µM
same,TGI,[65],3.35 µM
same,TGI,[45],34.8 µM
same,TGI,[47],6.11 µM
same,TGI,[48],21.9 µM
same,TGI,[49],14.8 µM
same,TGI,[50],14.8 µM
same,TGI,[52],20.7 µM
same,TGI,[53],6.18 µM
same,TGI,[54],> 100 µM
same,TGI,[55],3.33 µM
same,TGI,[66],14.8 µM
same,TGI,[56],8.55 µM
same,TGI,[57],13.2 µM
same,TGI,[59],31 µM

# From PubChem BioAssay (NCI)
